Assay results: patent publication US20210189342A1, “COMPOSITIONS AND METHODS FOR MODULATING MONOCYTE AND MACROPHAGE INFLAMMATORY PHENOTYPES AND IMMUNOTHERAPY USES THEREOF” (Verseau Therapeutics, Inc., priority 2018, published 2021)

Each substance was assayed on CD74 (assay: siRNA dose response, CD74 mRNA knockdown, bDNA Assay). Conditions: THP-1, 24 hr.
Type: cell-based, human
Experimental: (§1) Dose response curves for siRNAs were generated in vitro using a variety of cell lines according to Table 4.
(§2) Briefly, cells were seeded in 96-well plates and reverse transfected with siRNA, Lipofectamine® 2000 (0.5 uL/well; ThermoFisher), and, in some cases, a reporter plasmid (50 ng/well). The reporter plasmid (psiCHECK™-2, Promega) encoded both firefly luciferase and the gene of interest fused to renilla luciferase; silencing of the gene of interest results in proportional silencing of renilla luciferase but leaves firefly luciferase unaffected as an internal control.
(§3) After 24 hr incubation at 37° C., mRNA knockdown was measured using an endpoint assay. For targets without a reporter plasmid, a branched DNA (bDNA) assay was performed according to the manufacturer's instructions (QuantiGene® Singleplex Gene Expression Assay, ThermoFisher) to measure both the target gene and GAPDH (housekeeping gene) mRNA. Data are plotted as siRNA concentration (nM) vs. remaining mRNA (ratio of target gene to GAPDH, normalized to mock siRNA-transfected cells). For targets with a reporter plasmid, a Dual-Glo® Luciferase Assay was performed according to the manufacturer's instructions (Promega) to measure firefly and renilla luciferase expression. Data are plotted as siRNA concentration (nM) vs. remaining mRNA (ratio of renilla to firefly luminescence, normalized to mock siRNA-transfected cells).
(§4) For all dose response curves, a 4-parameter logistic model was applied to determine the IC50 of each siRNA sequence (Table 5 and FIG. 2). Data shown in Table 5 and FIG. 2 represent the mean of quadruplicates, +/−standard deviation.
Work on “XD-09235: siRNA targeting CD74 (sense 5'-ccAAuGuuuuccAcccAuAdTsdT-3'; antisense 5'-uAUGGGUGGAAAAcAUUGGdTsdT-3'; as printed in the source, key not given here)” yielded an IC50 of 0.245 nM. Substance “XD-09231: siRNA targeting CD74 (sense 5'-aaAccAAGucGGAacAGcAdTsdT-3'; antisense 5'-UGCUGUUCCGACUUGGUUUdTsdT-3'; RNA with 2'-O-methyl and phosphorothioate modifications, case key not given here, as printed in the source, key not given here)” has an IC50 of 0.255 nM.

What follows are substances tested on VSIG4 (assay: siRNA dose response, VSIG4 mRNA knockdown, Dual-Glo Luciferase Assay). Conditions: Hepa1-6 + reporter plasmid, 24 hr.
Type: cell-based, human
Experimental: as §1, §2, §3, §4
“XD-09170: siRNA targeting VSIG4 (sense 5'-aaGGcuAcAcccAaGucuudTsdT-3'; antisense 5'-AAGACUUGGGUGuAGCCUUdTsdT-3'; RNA with 2'-O-methyl and phosphorothioate modifications, case key not given here, as printed in the source, key not given here)” gave an IC50 of 0.024 nM. With “XD-09172: siRNA targeting VSIG4 (sense 5'-gcAAccAAGucGugAGAGAdTsdT-3'; antisense 5'-UCUCUcACGACUUGGUUGCdTsdT-3'; RNA with 2'-O-methyl and phosphorothioate modifications, case key not given here, as printed in the source, key not given here)” the IC50 was less than 0.005 nM. “XD-09178: siRNA targeting VSIG4 (sense 5'-gucAucAuGccuAcAGAcAdTsdT-3'; antisense 5'-UGUCUGuAGGcAUGAUGACdTsdT-3'; RNA with 2'-O-methyl and phosphorothioate modifications, case key not given here, as printed in the source, key not given here)” was tested, and the IC50 was 0.06 nM. “XD-09171: siRNA targeting VSIG4 (sense 5'-cuuucuAcGuGAcucuucudTsdT-3'; antisense 5'-AGAAGAGUcACGuAGAAAGdTsdT-3'; RNA with 2'-O-methyl and phosphorothioate modifications, case key not given here, as printed in the source, key not given here)” showed an IC50 of 0.023 nM. “XD-09174: siRNA targeting VSIG4 (sense 5'-aacAAGAGcAuGucuAcGAdTsdT-3'; antisense 5'-UCGuAGAcAUGCUCUUGUUdTsdT-3'; RNA with 2'-O-methyl and phosphorothioate modifications, case key not given here, as printed in the source, key not given here)” was tested, and the IC50 was 0.036 nM. Work on “XD-09173: siRNA targeting VSIG4 (sense 5'-cguGAGAGAuAAGauuAcudTsdT-3'; antisense 5'-AGuAAUCUuAUCUCUcACGdTsdT-3'; RNA with 2'-O-methyl and phosphorothioate modifications, case key not given here, as printed in the source, key not given here)” yielded an IC50 of less than 0.005 nM. Work on “XD-09179: siRNA targeting VSIG4 (sense 5'-ggccAGAcAGcuuuuAAuudTsdT-3'; antisense 5'-AAUuAAAAGCUGUCUGGCCdTsdT-3'; RNA with 2'-O-methyl and phosphorothioate modifications, case key not given here, as printed in the source, key not given here)” yielded an IC50 of 0.006 nM. Substance “XD-09176: siRNA targeting VSIG4 (sense 5'-cacuAGGAcuuGGucAucAdTsdT-3'; antisense 5'-AGAUGACcAAGUCCuAGUGdTsdT-3'; RNA with 2'-O-methyl and phosphorothioate modifications, case key not given here, as printed in the source, key not given here)” has an IC50 of 0.031 nM. “XD-09177: siRNA targeting VSIG4 (sense 5'-acuAGGAcuuGGucAucAudTsdT-3'; antisense 5'-AUGAUGACcAAGUCCuAGUdTsdT-3'; RNA with 2'-O-methyl and phosphorothioate modifications, case key not given here, as printed in the source, key not given here)” was tested, and the IC50 was 0.007 nM.

These substances were tested on AIF1 (assay: siRNA dose response, AIF1 mRNA knockdown, bDNA Assay). Conditions: THP-1, 24 hr.
Type: cell-based, human
Experimental: as §1, §2, §3, §4
Work on “XD-09668: siRNA targeting AIF1 (sense 5'-ccuAGAGcuAAAGaAAuuAdTsdT-3'; antisense 5'-uAAUUUCUUuAGCUCuAGGdTsdT-3'; as printed in the source, key not given here)” yielded an IC50 of 0.267 nM. Work on “XD-09665: siRNA targeting AIF1 (sense 5'-cucAccuAGAGcuaAAGAAdTsdT-3'; antisense 5'-UUCUUuAGCUCuAGGUGAGdTsdT-3'; as printed in the source, key not given here)” yielded an IC50 of 0.349 nM. Substance “XD-09664: siRNA targeting AIF1 (sense 5'-agAcucAccuAGAgcuAAAdTsdT-3'; antisense 5'-UUuAGCUCuAGGUGAGUCUdTsdT-3'; as printed in the source, key not given here)” has an IC50 of 0.433 nM. For “XD-09661: siRNA targeting AIF1 (sense 5'-uaAuGGAAAuGGcgAuAuudTsdT-3'; antisense 5'-AAuAUCGCcAUUUCcAUuAdTsdT-3'; as printed in the source, key not given here)”, the IC50 was 0.045 nM. In the case of “XD-09667: siRNA targeting AIF1 (sense 5'-accuAGAGcuAAAgAAAuudTsdT-3'; antisense 5'-AAUUUCUUuAGCUCuAGGUdTsdT-3'; as printed in the source, key not given here)”, the IC50 is reported as 0.042 nM. “XD-09662: siRNA targeting AIF1 (sense 5'-uaucAuGucccuGaAAcGAdTsdT-3'; antisense 5'-UCGUUUcAGGGAcAUGAuAdTsdT-3'; as printed in the source, key not given here)” showed an IC50 of 0.12 nM. “XD-09663: siRNA targeting AIF1 (sense 5'-gaAAcGAAuGcuGgAGAAAdTsdT-3'; antisense 5'-UUUCUCcAGcAUUCGUUUCdTsdT-3'; as printed in the source, key not given here)” was tested, and the IC50 was 0.263 nM. “XD-09669: siRNA targeting AIF1 (sense 5'-ccGGGGAGAcGuucAGcuAdTsdT-3'; antisense 5'-uAGCUGAACGUCUCCCCGGdTsdT-3'; as printed in the source, key not given here)” was tested, and the IC50 was 1.23 nM. “XD-09666: siRNA targeting AIF1 (sense 5'-ucAccuAGAGcuAaAGAAAdTsdT-3'; antisense 5'-UUUCUUuAGCUCuAGGUGAdTsdT-3'; as printed in the source, key not given here)” was tested, and the IC50 was 0.105 nM.

Each substance was assayed on CD37 (assay: siRNA dose response, CD37 mRNA knockdown, bDNA Assay). Conditions: THP-1, 24 hr.
Type: cell-based, human
Experimental: as §1, §2, §3, §4
With “XD-09770: siRNA targeting CD37 (sense 5'-gcuuGcGGGAcGucGuAGAdTsdT-3'; antisense 5'-UCuACGACGUCCCGcAAGCdTsdT-3'; RNA with 2'-O-methyl and phosphorothioate modifications, case key not given here, as printed in the source, key not given here)” the IC50 was 0.553 nM. “XD-09778: siRNA targeting CD37 (sense 5'-cgGcucGcucGAuaccGuudTsdT-3'; antisense 5'-AACGGuAUCGAGCGAGCCGdTsdT-3'; RNA with 2'-O-methyl and phosphorothioate modifications, case key not given here, as printed in the source, key not given here)” gave an IC50 of 11.4 nM. With “XD-09779: siRNA targeting CD37 (sense 5'-accAcccAcAAGAuuAuuudTsdT-3'; antisense 5'-AAAuAAUCUUGUGGGUGGUdTsdT-3'; RNA with 2'-O-methyl and phosphorothioate modifications, case key not given here, as printed in the source, key not given here)” the IC50 was less than 0.005 nM. In the case of “XD-09771: siRNA targeting CD37 (sense 5'-gacGucGuAGAGAaAAccAdTsdT-3'; antisense 5'-UGGUUUUCUCuACGACGUCdTsdT-3'; RNA with 2'-O-methyl and phosphorothioate modifications, case key not given here, as printed in the source, key not given here)”, the IC50 is reported as 0.388 nM. “XD-09776: siRNA targeting CD37 (sense 5'-ggcuGcAcAAcAAccuuAudTsdT-3'; antisense 5'-AuAAGGUUGUUGUGcAGCCdTsdT-3'; RNA with 2'-O-methyl and phosphorothioate modifications, case key not given here, as printed in the source, key not given here)” was tested, and the IC50 was 1.32 nM. Substance “XD-09774: siRNA targeting CD37 (sense 5'-ccAAcGAcuccAcaAuccudTsdT-3'; antisense 5'-AGGAUUGUGGAGUCGUUGGdTsdT-3'; RNA with 2'-O-methyl and phosphorothioate modifications, case key not given here, as printed in the source, key not given here)” has an IC50 of 0.129 nM.
